Assay results reported in US6599943B1, “Use of hydroxyguanidines” (WaPharm AB, priority 1996, dated 2003).

Tests used:
Assay type in all cases: biochemical
[1] = target: T1, bovine milk xanthine oxidase (Bos taurus, UniProt P80457); assay: Oxidation of xanthine to uric acid by xanthine oxidase in absence and presence of oxygen, spectrophotometric; design: host or cells: bovine milk; settings: 50 μM guanoxabenz, 50 μM xanthine; both in the absence of oxygen (nitrogen) and in the presence of 20% oxygen
Protocol: Capacity of hydroxyguanidines to sustain oxidation of xanthine by xanthine oxidase in the absence and in the presence of oxygen. The capacity of hydroxyguanidines to sustain the oxidation of xanthine to uric acid in the absence and presence of oxygen was assayed by using a spectrophotometric method. In this method bovine milk xanthine oxidase was injected to a Helma® sealable cuvette for anaerobic applications thereby creating 1 ml of a reaction mixture that contained reagents as follows: 50 μM of a hydroxyguanidine, 50 μM xanthine, 0.05 units/ml bovine milk xanthine oxidase, 50 mM Tris and 1.5 mM EDTA; the pH of the reaction mixture being 7.5, and the temperature being 20° C. Anaerobic conditions were assured by pre-gassing all solutions used for 5-10 min, with nitrogen whereas aerobic conditions was assured by exposing the solutions to air. The rate of formation of uric acid was monitored spectrophotometrically by measuring the increase in absorbance at 295 nm (the absorption maximum for uric acid) at timed intervals. In FIG. 5 are shown examplary recordings from these tests. In this test the hydroxyguanidine was guanoxabenz.
Target sequence in this assay (P80457 whole entry): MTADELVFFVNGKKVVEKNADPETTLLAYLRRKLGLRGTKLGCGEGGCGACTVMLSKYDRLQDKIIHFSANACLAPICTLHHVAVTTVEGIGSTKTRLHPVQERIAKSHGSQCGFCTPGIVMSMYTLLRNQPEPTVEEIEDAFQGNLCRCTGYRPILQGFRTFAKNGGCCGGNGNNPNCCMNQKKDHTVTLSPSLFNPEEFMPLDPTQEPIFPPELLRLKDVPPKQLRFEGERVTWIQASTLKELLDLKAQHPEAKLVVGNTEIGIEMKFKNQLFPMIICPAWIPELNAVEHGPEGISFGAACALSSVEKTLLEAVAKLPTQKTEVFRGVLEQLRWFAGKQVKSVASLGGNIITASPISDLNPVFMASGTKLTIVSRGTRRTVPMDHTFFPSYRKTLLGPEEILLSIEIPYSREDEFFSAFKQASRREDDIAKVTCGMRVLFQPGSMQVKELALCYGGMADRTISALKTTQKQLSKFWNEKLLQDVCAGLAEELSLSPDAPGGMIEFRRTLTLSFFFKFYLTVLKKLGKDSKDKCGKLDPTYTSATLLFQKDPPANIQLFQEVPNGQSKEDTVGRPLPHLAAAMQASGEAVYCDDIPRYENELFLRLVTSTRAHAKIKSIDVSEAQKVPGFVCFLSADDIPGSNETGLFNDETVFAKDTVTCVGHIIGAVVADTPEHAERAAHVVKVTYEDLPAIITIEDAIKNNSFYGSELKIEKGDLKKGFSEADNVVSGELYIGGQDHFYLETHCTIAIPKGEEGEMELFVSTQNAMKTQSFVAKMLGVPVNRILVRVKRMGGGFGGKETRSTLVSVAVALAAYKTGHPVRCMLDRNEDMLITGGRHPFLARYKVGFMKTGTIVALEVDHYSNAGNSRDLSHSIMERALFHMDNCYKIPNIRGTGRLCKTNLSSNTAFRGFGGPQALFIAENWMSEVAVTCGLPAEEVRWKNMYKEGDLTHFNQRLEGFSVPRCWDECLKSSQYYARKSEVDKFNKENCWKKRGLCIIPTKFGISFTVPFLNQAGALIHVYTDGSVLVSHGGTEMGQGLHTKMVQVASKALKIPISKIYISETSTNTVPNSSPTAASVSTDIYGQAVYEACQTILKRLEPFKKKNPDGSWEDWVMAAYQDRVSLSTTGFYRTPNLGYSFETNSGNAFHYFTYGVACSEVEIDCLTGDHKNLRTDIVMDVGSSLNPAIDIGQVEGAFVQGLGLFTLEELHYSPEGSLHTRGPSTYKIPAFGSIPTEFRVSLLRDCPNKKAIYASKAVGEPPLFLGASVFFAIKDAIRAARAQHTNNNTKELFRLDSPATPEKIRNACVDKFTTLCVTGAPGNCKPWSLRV

[2] = system: bovine milk xanthine oxidase; assay: Hydroxyguanidine reducing activity of bovine xanthine oxidase, simplified radioligand binding assay
Protocol: (§1) In a simplified form of the assay the α2-adrenoceptor containing membranes and the [^3H]RX821002 radioligand were added together with the hydroxyguanidine reducing activity and the hydroxyguanidine, and the mixture then incubated for a suitable time. In this implementation of the assay the reduction of the hydroxyguanidine occurred simultaneously with the assay of the […]. Example of this variant of the assay is given in Examples 4 and 8.
(§2) Hydroxyguanidine reducing activity of bovine xanthine oxidase.

[3] = target: T1, bovine milk xanthine oxidase; assay: as above; settings: 100 μM xanthine versus xanthine absent
Protocol: as §1, §2
Target sequence in this assay (P80457 2-1332): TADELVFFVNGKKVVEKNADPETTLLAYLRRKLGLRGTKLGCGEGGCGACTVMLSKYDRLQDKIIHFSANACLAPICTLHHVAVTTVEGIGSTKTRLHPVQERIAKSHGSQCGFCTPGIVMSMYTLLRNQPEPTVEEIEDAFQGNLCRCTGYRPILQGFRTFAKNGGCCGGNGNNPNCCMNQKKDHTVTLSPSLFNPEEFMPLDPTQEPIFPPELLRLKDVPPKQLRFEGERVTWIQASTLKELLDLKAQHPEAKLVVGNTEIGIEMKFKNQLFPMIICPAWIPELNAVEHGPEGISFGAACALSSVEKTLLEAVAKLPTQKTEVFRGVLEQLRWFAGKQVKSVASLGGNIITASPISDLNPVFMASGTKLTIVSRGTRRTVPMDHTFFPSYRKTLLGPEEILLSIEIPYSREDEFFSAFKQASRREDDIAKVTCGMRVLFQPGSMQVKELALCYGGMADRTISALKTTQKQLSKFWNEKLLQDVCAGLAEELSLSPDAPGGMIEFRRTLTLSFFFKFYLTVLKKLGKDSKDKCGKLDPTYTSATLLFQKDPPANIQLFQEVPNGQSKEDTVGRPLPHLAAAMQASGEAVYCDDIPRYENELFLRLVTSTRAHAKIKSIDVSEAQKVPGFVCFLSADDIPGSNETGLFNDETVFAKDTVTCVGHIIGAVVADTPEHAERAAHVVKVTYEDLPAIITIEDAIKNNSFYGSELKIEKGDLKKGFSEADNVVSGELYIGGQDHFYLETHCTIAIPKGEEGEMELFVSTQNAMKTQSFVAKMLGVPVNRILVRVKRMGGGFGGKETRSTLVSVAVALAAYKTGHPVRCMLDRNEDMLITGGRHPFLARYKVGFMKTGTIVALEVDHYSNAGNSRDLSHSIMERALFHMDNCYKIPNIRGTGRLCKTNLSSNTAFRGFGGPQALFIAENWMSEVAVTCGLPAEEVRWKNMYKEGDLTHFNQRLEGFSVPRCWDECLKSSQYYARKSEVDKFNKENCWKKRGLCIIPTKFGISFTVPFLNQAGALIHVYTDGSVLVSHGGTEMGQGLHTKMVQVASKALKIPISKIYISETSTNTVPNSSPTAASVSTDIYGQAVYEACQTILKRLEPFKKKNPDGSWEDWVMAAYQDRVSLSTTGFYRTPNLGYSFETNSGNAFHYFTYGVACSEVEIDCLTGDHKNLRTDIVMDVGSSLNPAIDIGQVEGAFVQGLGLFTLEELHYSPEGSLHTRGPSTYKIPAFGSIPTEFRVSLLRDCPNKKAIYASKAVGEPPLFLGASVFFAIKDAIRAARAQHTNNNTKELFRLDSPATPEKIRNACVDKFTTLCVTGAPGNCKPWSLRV

rat spleen cytosol = assay: Hydroxyguanidine reducing activity of spleen cytosol by radioligand binding assay; settings: 70 μM guanoxabenz, 1 hr at 25° C.
Protocol: Assay of hydroxyguanidine reducing activity by radioligand binding. The assay is based on the possibility to measure the affinity of ligands to α2-adrenoceptors by using radioligand binding. In a typical experiment small aliquots of the sample to be measured is added to an assay containing membranes rich in α2-adrenoceptors as well as a suitable concentration of a radioligand capable of binding to α2-adrenoceptors. After the assay mixture has been incubated for a suitable time, to achieve equilibrium, the amount of radioligand bound to the membranes is measured by washing and filtering on GF/C glass fibre filters using methods that are well described in literature, and which are commonly referred to as radioligand binding. The ability of the hydroxyguanidine and its product to inhibit the binding of the radioligand to the α2-adrenoceptor constituted a measure of the hydroxyguanidine/guanidine activity of the reaction mixture. A preferred hydroxyguanidine is one which corresponding guanidine show substantially different affinity compared to the hydroxyguanidine itself. A most preferred example of such a hydroxyguanidine is guanoxabenz.
In a more more exact version of the assay the “apparent affinity” of the mixture of hydroxyguanidine and guanidine-product is measured by constructing a complete competition curve for each sample to be measured. This is achieved by adding different dilutions of the reaction mixture to the radioligand binding assay. Since the sum of the concentration of the hydroxyguanidine and the guanidine product is known, the “apparent affinity” of the mixture can be calculated from the radioligand binding data using standard procedures for radioligand binding data analysis (Uhlén and Wikberg,1991). For the purpose of the present studies the apparent affinity of the reaction mixture was estimated from competition data by using a radioligand binding analysis computer software package (Wan System AB, Trillvägen 13, S-905 92 Umeå, Sweden). The fraction (q) of guanidine product obtained is then given by: [formula] […]

xanthine oxidase = xanthine oxidase (Bos taurus, UniProt P80457); assay: Inhibition of superoxide radical formation by xanthine oxidase, EPR with DMPO; settings: 100 μM guanoxabenz, 100 μM xanthine, 0.04 units/ml xanthine oxidase, 50 μM DMPO
Protocol: Capacity of hydroxyguanidines to inhibit the formation of superoxide radicals by xanthine oxidase in the presence of oxygen. The detection of the spin adducts of superoxide formed by xanthine oxidase and xanthine reaction was performed by using a Bruker ER200D-SRC EPR spectrometer equipped with an ER4105ST double cavity and the spin trap agent DMPO, by essentially using the approach described by Britigan et al. (1990). In brief, reaction mixtures of total volumes of 0.5 ml were prepared by adding to a plastic tubes, in the listed order, reagents that gave final concentrations as follows: 50 mM Tris HCl, 1.5 mM EDTA, 100 μM xanthine, 100 μM guanoxabenz, 0.04 units/ml xanthine oxidase and 50 μM DMPO, pH 7.5. As a control served an identical reaction mixture except that guanoxabenz had been omitted. The solutions were immediately transferred to standard flat cells for aqueous samples and spectra were recorded at room temperature. Spectrometer settings were as follows: microwave power 3.99 mW; modulation amplitude 1.028 G; time constant 10.24 ms; modulation frequency 100 kHz; receiver gain, 5×10^4. In FIG. 6 is shown an exemplary recording from these tests. […] This additional signal was due to a contaminant corresponding to “nitric oxide” that was released from the disposable laboratory plastic used in the preparation of the samples (see Buettner et al., 1991).

xanthine oxidase, sequence (P80457 whole entry): as the sequence (P80457 whole entry) above

**Q.** Which results are given for `N=C(NO)NN=Cc1c(Cl)cccc1Cl` [Guanoxabenz, 2(2,6-dichlorophenyl)methylene-N-hydroxyhydrazine carboxi-imidamide]?
**A.** rate of the formation of uric acid (absorbance at 295 nm) [1]: substantial increase; guanoxabenz converted to guanabenz ([2]; in the absence of xanthine): none; conversion of guanoxabenz to guanabenz ([2]; in the presence of xanthine): about 88%; increase in the apparent affinity on addition of xanthine [3]: about 40 fold; concentration of guanabenz in the sample (rat spleen cytosol): 17.5 µM; conversion of guanoxabenz to guanabenz (rat spleen cytosol): 25%; q (fraction of guanidine product) (rat spleen cytosol): 0.25; reduction of the superoxide signal (EPR) (xanthine oxidase): about 60%
